From article PMC9177597, “Structural basis of substrate recognition and translocation by human very long-chain fatty acid transporter ABCD1” (Nature Communications, 2022)
Changes are numbered by the printed parent chain.

What was measured:
Assay in all cases: substrate-stimulated ATPase assay (colorimetric Pi release)
Format in all cases: biochemical
Conditions in all cases: 5 μM C22:0-CoA, 2 mM ATP, 2 mM MgCl2, LMNG + CHS, pH 7.5, 37 °C
chABCD1 (chimeric ABCD1) [1] = target: T1, chABCD1 (chimeric ABCD1) (Homo sapiens, UniProt P33897, R401Q)
T1 construct: single polypeptide: N-terminal FLAG tag, PMP-4 residues 1-65 replacing human ABCD1 residues 1-63, then human ABCD1 64-745; HEK293F; homodimer; LMNG/CHS for assays, digitonin for cryo-EM; with PMP-4 (peroxisomal membrane protein related, ABCD1 homolog, Caenorhabditis elegans; N-terminal segment fused to the target chain)
T1 sequence (P33897 64-745 R401Q): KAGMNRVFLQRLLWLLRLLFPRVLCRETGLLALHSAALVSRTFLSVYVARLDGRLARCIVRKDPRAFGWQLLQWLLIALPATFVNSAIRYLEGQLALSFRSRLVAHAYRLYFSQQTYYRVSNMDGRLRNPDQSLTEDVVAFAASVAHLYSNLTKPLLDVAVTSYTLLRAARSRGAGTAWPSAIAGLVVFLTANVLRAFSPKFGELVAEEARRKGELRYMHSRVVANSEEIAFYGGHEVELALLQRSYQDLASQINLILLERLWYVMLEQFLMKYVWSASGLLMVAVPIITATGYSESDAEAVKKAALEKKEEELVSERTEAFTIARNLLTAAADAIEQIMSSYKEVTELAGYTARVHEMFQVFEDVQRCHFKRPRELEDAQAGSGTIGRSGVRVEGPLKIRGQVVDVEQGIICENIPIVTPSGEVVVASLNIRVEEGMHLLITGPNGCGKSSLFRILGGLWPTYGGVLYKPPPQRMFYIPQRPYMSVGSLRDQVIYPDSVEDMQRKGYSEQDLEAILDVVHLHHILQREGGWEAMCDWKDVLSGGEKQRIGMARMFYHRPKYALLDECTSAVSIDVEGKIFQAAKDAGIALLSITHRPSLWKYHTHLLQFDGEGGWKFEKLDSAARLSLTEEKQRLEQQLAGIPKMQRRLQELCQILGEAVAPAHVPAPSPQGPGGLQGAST

chABCD1 (chimeric ABCD1) [2] = target: T2, chABCD1 (chimeric ABCD1) (Homo sapiens, UniProt P33897, R104A)
T2 construct: single polypeptide: N-terminal FLAG tag, PMP-4 residues 1-65 replacing human ABCD1 residues 1-63, then human ABCD1 64-745; HEK293F; homodimer; LMNG/CHS for assays, digitonin for cryo-EM; with PMP-4 (peroxisomal membrane protein related, ABCD1 homolog, Caenorhabditis elegans; N-terminal segment fused to the target chain)
T2 sequence (P33897 64-745 R104A): T1 sequence (P33897 64-745 R401Q) with R41A, Q338R

chABCD1 (chimeric ABCD1) [3] = target: T3, chABCD1 (chimeric ABCD1) (Homo sapiens, UniProt P33897, Y337F)
T3 construct: single polypeptide: N-terminal FLAG tag, PMP-4 residues 1-65 replacing human ABCD1 residues 1-63, then human ABCD1 64-745; HEK293F; homodimer; LMNG/CHS for assays, digitonin for cryo-EM; with PMP-4 (peroxisomal membrane protein related, ABCD1 homolog, Caenorhabditis elegans; N-terminal segment fused to the target chain)
T3 sequence (P33897 64-745 Y337F): T1 sequence (P33897 64-745 R401Q) with Y274F, Q338R

chABCD1 (chimeric ABCD1) [4] = target: T4, chABCD1 (chimeric ABCD1) (Homo sapiens, UniProt P33897, G343V)
T4 construct: single polypeptide: N-terminal FLAG tag, PMP-4 residues 1-65 replacing human ABCD1 residues 1-63, then human ABCD1 64-745; HEK293F; homodimer; LMNG/CHS for assays, digitonin for cryo-EM; with PMP-4 (peroxisomal membrane protein related, ABCD1 homolog, Caenorhabditis elegans; N-terminal segment fused to the target chain)
T4 sequence (P33897 64-745 G343V): T1 sequence (P33897 64-745 R401Q) with G280V, Q338R

CCCCCCCCCCCCCCCCCCCCCC(=O)SCCNC(=O)CCNC(=O)[C@H](O)C(C)(C)COP(=O)(O)OP(=O)(O)OC[C@H]1O[C@@H](n2cnc3c(N)ncnc32)[C@H](O)[C@@H]1OP(=O)(O)O [C22:0-CoA]
relative ATPase activity (chABCD1 (chimeric ABCD1) [1]): displayed significantly decreased substrate-simulated ATPase activity, compared to the wild-type | relative ATPase activity (chABCD1 (chimeric ABCD1) [2]): displayed significantly decreased substrate-simulated ATPase activity, compared to the wild-type | relative ATPase activity (chABCD1 (chimeric ABCD1) [3]): displayed significantly decreased substrate-simulated ATPase activity, compared to the wild-type | relative ATPase activity (chABCD1 (chimeric ABCD1) [4]): displayed significantly decreased substrate-simulated ATPase activity, compared to the wild-type
